# Test results: US6620828B2, “Thiazole compounds and pharmaceutical compositions for inhibiting protein kinases and methods for their use” (Agouron Pharmaceuticals, Inc., priority 1999, dated 2003)
# Read-outs that look alike come from different tables or passages of the source.
# Key:
# [1] = molecular target: T1, phosphorylated VEGF-R2Δ50 (Homo sapiens, UniProt P35968, DEL940-989/E990V); experiment: VEGF-R2 ELISA assay; format: biochemical; details: * determined with ELISA assay, read-out: FLVK-P Ki
# T1 construct: VEGF-R2Δ50 contains residues 806-939 and 990-1171; made in house; host or cells: baculovirus/insect cells
# T1 sequence (P35968 with tags, fused parts or gaps DEL940-989/E990V limits assumed): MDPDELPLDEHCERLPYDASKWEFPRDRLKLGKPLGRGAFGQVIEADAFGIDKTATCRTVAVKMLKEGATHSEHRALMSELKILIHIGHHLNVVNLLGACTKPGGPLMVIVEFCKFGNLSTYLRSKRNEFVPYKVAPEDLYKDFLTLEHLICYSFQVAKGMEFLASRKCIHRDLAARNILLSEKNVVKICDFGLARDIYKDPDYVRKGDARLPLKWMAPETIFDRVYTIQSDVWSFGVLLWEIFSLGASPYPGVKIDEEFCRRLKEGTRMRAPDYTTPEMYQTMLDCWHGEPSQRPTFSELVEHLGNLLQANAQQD
# From the text: VEGF-R2 Construct for Assay: This construct determines the ability of a test compound to inhibit tyrosine kinase activity. A construct (VEGF-R2Δ50) of the cytosolic domain of human vascular endothelial growth factor receptor 2 (VEGF-R2) lacking the 50 central residues of the 68 residues of the kinase insert domain was expressed in a baculovirus/insect cell system. Of the 1356 residues of full-length VEGF-R2, VEGF-R2Δ50 contains residues 806-939 and 990-1171, and also one point mutation (E990V) within the kinase insert domain relative to wild-type VEGF-R2. Autophosphorylation of the purified construct was performed by incubation of the enzyme at a concentration of 4 μM in the presence of 3 mM ATP and 40 mM MgCl2 in 100 mM Hepes, pH 7.5, containing 5% glycerol and 5 mM DTT, at 4° C. for 2 h. […] See Parast et al., Biochemistry, 37, 16788-16801 (1998).
# Formation of phosphogastrin was monitored using biotinylated gastrin peptide (1-17) as substrate. Biotinylated phosphogastrin was immobilized using streptavidin coated 96-well microtiter plates followed by detection using anti-phosphotyrosine-antibody conjugated to horseradish peroxidase. The activity of horseradish peroxidase was monitored using 2,2′-azino-di-[3-ethylbenzathiazoline sulfonate(6)]diammonium salt (ABTS). Typical assay solutions contained: 2 μM biotinylated gastrin peptide; 5 mM DTT; 20 μM ATP; 26 mM MgCl2; and 2 mM MnCl2 in 200 mM Hepes, pH 7.5. The assay was initiated with 0.8 nM of phosphorylated VEGF-R2Δ50. Horseradish peroxidase activity was assayed using ABTS, 10 mM. The horseradish peroxidase reaction was quenched by addition of acid (H2SO4), followed by absorbance reading at 405 nm. Ki values were determined by measuring enzyme activity in the presence of varying concentrations of test compounds. The data were analyzed using Enzyme Kinetic and Kaleidagraph software.
# CDK4/Cyclin D3 complex = molecular target: T2, CDK4/Cyclin D3 complex (Homo sapiens, UniProt P11802); experiment: CDK4/Cyclin D assay; format: biochemical; details: Table 2
# T2 construct: made in house; host or cells: insect cells co-infected with baculovirus vectors
# T2 sequence (P11802 whole entry): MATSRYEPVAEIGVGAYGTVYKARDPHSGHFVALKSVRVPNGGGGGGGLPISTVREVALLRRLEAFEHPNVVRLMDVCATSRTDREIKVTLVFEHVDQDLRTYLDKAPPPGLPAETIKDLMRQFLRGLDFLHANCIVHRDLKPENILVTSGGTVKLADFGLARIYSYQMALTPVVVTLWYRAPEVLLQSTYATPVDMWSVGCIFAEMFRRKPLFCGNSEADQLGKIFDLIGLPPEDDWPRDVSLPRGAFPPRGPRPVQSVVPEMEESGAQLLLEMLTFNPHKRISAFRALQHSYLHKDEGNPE
# T2 sequence (P30281 whole entry partner): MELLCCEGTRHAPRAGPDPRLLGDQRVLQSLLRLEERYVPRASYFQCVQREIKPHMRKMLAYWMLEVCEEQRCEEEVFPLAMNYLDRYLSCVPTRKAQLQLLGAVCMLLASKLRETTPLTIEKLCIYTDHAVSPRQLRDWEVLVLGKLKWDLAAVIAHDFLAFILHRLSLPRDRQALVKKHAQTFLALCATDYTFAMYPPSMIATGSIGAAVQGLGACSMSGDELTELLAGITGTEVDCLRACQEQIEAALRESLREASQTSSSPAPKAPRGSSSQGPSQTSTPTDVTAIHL
# How it was run: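 Insect-cell-expressed CDK4/cyclin D3 (50 nM) phosphorylating His-tagged Rb fragment (residues 386-928) with 25 μM [^32P]ATP in HEPES pH 7.4, MgCl2, 2% DMSO; 20 min at 30 °C, EDTA stop. Filter-captured 32P by phosphorimager; apparent Ki from competitive or tight-binding inhibition fits.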
# [2] = molecular target: T3, phosphorylated VEGF-R2Δ50 (FLVK-P) (Homo sapiens, UniProt P35968, DEL940-989/E990V); experiment: VEGF-R2 coupled spectrophotometric (FLVK-P) assay; format: biochemical; details: spectrophotometric assay
# T3 construct: VEGF-R2Δ50 contains residues 806-939 and 990-1171; made in house; host or cells: baculovirus/insect cells
# T3 sequence (P35968 with tags, fused parts or gaps DEL940-989/E990V limits assumed): as the sequence (P35968 with tags, fused parts or gaps DEL940-989/E990V limits assumed) above
# How it was run: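 Baculovirus-expressed human VEGF-R2Δ50 (residues 806-939/990-1171, E990V) was autophosphorylated with 3 mM ATP, 40 mM MgCl2 for 2 h at 4° C. ADP formation was coupled via PK/LDH to NADH oxidation, read at 340 nm, with 5.1 mM poly(E4Y1), 1 mM ATP, 25 mM MgCl2, Hepes pH 7.5. Ki came from activity across compound concentrations.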
# CHK1 = molecular target: T4, CHK1 (Homo sapiens, UniProt O14757); experiment: CHK1 high-throughput screening; format: biochemical; details: read-out: % inhibition @ 20 μM, Table 4, repeated entries per example
# T4 sequence (O14757 1-476): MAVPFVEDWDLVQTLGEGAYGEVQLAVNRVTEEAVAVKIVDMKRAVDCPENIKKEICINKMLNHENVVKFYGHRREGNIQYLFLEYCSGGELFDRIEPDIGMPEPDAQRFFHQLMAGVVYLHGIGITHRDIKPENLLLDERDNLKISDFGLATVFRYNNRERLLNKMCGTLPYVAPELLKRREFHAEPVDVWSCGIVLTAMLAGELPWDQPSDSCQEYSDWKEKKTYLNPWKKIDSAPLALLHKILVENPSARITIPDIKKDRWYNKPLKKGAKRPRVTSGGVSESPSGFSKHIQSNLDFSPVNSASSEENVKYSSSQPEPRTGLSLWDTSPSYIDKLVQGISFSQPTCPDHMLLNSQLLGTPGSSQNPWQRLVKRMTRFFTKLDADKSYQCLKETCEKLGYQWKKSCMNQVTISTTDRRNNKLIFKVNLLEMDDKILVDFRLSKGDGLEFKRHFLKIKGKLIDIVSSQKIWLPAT
# CDK2/Cyclin A complex = CDK2/Cyclin A complex (Homo sapiens, UniProt P24941); experiment: CDK2/Cyclin A assay; format: biochemical; details: Table 2
# How it was run: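 Radiometric assay: 150 nM CDK2/cyclin A (insect-cell CDK2, truncated cyclin A) phosphorylates His-tagged Rb fragment (residues 386-928) with 25 μM ATP plus [32P]ATP, pH 7.4 HEPES, 2% DMSO, 30 °C for 20 min. Filter-captured product counted by phosphorimager; apparent Ki from competitive or tight-binding inhibition fits.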
# [3] = test system: human umbilical vein endothelial cells (HUVEC); experiment: HUVEC proliferation assay; format: cell-based; details: Homo sapiens, HUVEC, Table 1
# How it was run: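 Exponentially growing HUVEC were serum-starved 24 h (F12K + 1% FBS), pre-treated 1 h with compound (0.1% DMSO final), then stimulated with 6 ng/ml VEGF. Proliferation was read 72 h later by MTT reduction (A595). IC50 came from seven 0.5-log concentrations in triplicate; screens gave % inhibition relative to VEGF-only and starved wells.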
# [4] = test system: lung cancer cells (line MV522); experiment: Cancer cell proliferation (MV522) assay; format: cell-based; details: MV522, Table 1
# Method: Cancer Cell Proliferation (MV522) Assay
# The protocol for assessing cellular proliferation in cancer cells is similar to that used for assessments in HUVEC cells. Two thousand lung cancer cells (line MV522, acquired from American Tissue Cultural Collection) were seeded in growth media (RPMI1640 medium supplemented with 2 mM glutamine and 10% FBS). Cells are allowed to attach for 1 day prior to addition of test agents and/or vehicles. Cells are treated simultaneously with the same test agents used in the HUVEC assay. Cellular proliferation is quantified by MTT dye reduction assay 72 hours after exposure to test agents. The total length of the assay is 4 days vs. 5 for HUVEC cells because MV522 cells are not exposed to starvation medium.
Ki ([1]; Table 2) [nM],Ki ([1]; Table 1) [nM],Compound,further results
1250,–,"COc1cc(Nc2nc(N)c(C3=NC(c4ccccc4Br)CO3)s2)cc(OC)c1OC (racemic) [I(13), (R/S)-5-[4-(2-Bromo-phenyl)-4,5-dihydro-oxazol-2-yl]-N^2-(3,4,5-trimethoxy-phenyl)-thiazole-2,4-diamine]",–
1170,–,"COc1cc(Nc2nc(N)c(C3=NC(c4cccc(Br)c4)CO3)s2)cc(OC)c1OC (racemic) [I(14), (R/S)-5-[4-(3-Bromo-phenyl)-4,5-dihydro-oxazol-2-yl]-N^2-(3,4,5-trimethoxy-phenyl)-thiazole-2,4-diamine]",–
73000,–,"COc1cc(Nc2nc(N)c(C3=NC(C)CO3)s2)cc(OC)c1OC (racemic) [I(15), (R/S)-5-(4-Methyl-4,5-dihydro-oxazol-2-yl)-N^2-(3,4,5-trimethoxy-phenyl)-thiazole-2,4-diamine]",–
35000,–,"COc1cc(Nc2nc(N)c(C3=NC(C(C)C)CO3)s2)cc(OC)c1OC (racemic) [I(17), (R/S)-5-(4-Isopropyl-4,5-dihydro-oxazol-2-yl)-N^2-(3,4,5-trimethoxy-phenyl)-thiazole-2,4-diamine]",–
34000,–,"COc1cc(Nc2nc(N)c(C3=NCC(C)O3)s2)cc(OC)c1OC (racemic) [I(19), (R/S)-5-(5-Methyl-4,5-dihydro-oxazol-2-yl)-N^2-(3,4,5-trimethoxy-phenyl)-thiazole-2,4-diamine]",–
178000,–,"COc1cc(Nc2nc(N)c(C3=N[C@@H](C)C(c4ccccc4)O3)s2)cc(OC)c1OC (stereo in doubt) [I(16), 5-(4-Methyl-5-phenyl-4,5-dihydro-oxazol-2-yl)-N^2-(3,4,5-trimethoxy-phenyl)-thiazole-2,4-diamine]",–
–,–,"CNc1nc(N)c(-c2nc(-c3cccc(O)c3)cs2)s1 [A(30), 3-(4′-Amino-2′-methylamino-[2,5′]bithiazolyl-4-yl)-phenol]",Ki (CDK4/Cyclin D3 complex): 22000 nM; Ki ([2]; Table 2): 110 nM; inhibition at 20 µM (CHK1): 3.4%; Ki (CDK2/Cyclin A complex): 4800 nM
–,–,"Nc1nc(Nc2cccc(C(=O)O)c2)sc1-c1nc(-c2cccc(NC(=O)c3ccccc3)c2)cs1 [A(50), 3-[4′-Amino-4-(3-benzoylamino-phenyl)-[2,5′]bithiazolyl-2′-ylamino]-benzoic acid]",IC50 [3]: > 700 nM; IC50 [4]: > 10000 nM; Ki ([2]; Table 1): 8.9 nM; inhibition at 20 µM (CHK1): 30.1%
–,63,"COc1cc(Nc2nc(N)c(-c3nc(-c4cccc(NC(=O)Cc5ccccc5)c4)cs3)s2)cc(OC)c1OC [D(5), N-{3-[4′-Amino-2′-(3,4,5-trimethoxy-phenylamino)-[2,5′]bithiazolyl-4-yl]-phenyl}-2-phenyl-acetamide]",–
–,25,"COC(=O)Nc1cccc(-c2csc(-c3sc(Nc4cc(OC)c(OC)c(OC)c4)nc3N)n2)c1 [D(6), {3-[4′-Amino-2′-(3,4,5-trimethoxy-phenylamino)-[2,5′]bithiazolyl-4-yl]-phenyl}-carbamic acid methyl ester]",–
–,120,"CNC(=O)Nc1cccc(-c2csc(-c3sc(Nc4cc(OC)c(OC)c(OC)c4)nc3N)n2)c1 [D(7), 1-{3-[4′-Amino-2′-(3,4,5-trimethoxy-phenylamino)-[2,5′]bithiazolyl-4-yl]-phenyl}-3-methyl-urea]",–
–,29,"CCC(=O)Nc1cccc(-c2csc(-c3sc(Nc4cc(OC)c(OC)c(OC)c4)nc3N)n2)c1 [D(8), N-{3-[4′-Amino-2′-(3,4,5-trimethoxy-phenylamino)-[2,5′]bithiazolyl-4-yl]-phenyl}-propionamide]",–
–,47,COc1cc(Nc2nc(N)c(-c3nc(-c4cccc(NC(=O)CC(C)C)c4)cs3)s2)cc(OC)c1OC [D(9)],–
–,56,"COc1cc(Nc2nc(N)c(-c3nc(-c4cccc(NC(=O)OC(C)C)c4)cs3)s2)cc(OC)c1OC [D(10), {3-[4′-Amino-2′-(3,4,5-trimethoxy-phenylamino)-[2,5′]bithiazolyl-4-yl]-phenyl}-carbamic acid isopropyl ester]",–
–,120,"COc1cc(Nc2nc(N)c(-c3nc(-c4cccc(NC(=O)C(F)(F)F)c4)cs3)s2)cc(OC)c1OC [D(13), N-{^3-[4′-Amino-2′-(3,4,5-trimethoxy-phenylamino)-[2,5′]bithiazolyl-4-yl]-phenyl}-2,2,2-trifluoro-acetamide]",–
–,120,"COc1cc(Nc2nc(N)c(-c3nc(-c4cccc(NC(=O)C(F)F)c4)cs3)s2)cc(OC)c1OC [D(14), N-{3-[4′-Amino-2′-(3,4,5-trimethoxy-phenylamino)-[2,5′]bithiazolyl-4-yl]-phenyl}-2,2-difluoro-acetamide]",–
–,240,"COc1cc(Nc2nc(N)c(-c3nc(-c4cccc(NC(=O)COc5ccccc5)c4)cs3)s2)cc(OC)c1OC [D(15), N-{3-[4′-Amino-2′-(3,4,5-trimethoxy-phenylamino)-[2,5′]bithiazolyl-4-yl]-phenyl}-2-phenoxy-acetamide]",–
1600,–,"COc1cc(Nc2nc(N)c(-c3noc(-c4ccsc4)n3)s2)cc(OC)c1OC [G(7), 5-(5-Thiophen-3-yl-[1,2,4]oxadiazol-3-yl)-N^2-(3,4,5-trimethoxy-phenyl)-thiazole-2,4-diamine]",CDK2 % inhibition @ 10 (CDK2/Cyclin A complex; at 10 (head μM)): 21% @
5200,–,"COc1cc(Nc2nc(N)c(C3=N[C@H](c4ccccc4)CO3)s2)cc(OC)c1OC [I(7), R-5-(4-Phenyl-4,5-dihydro-oxazol-2-yl)-N^2-(3,4,5-trimethoxyl-phenyl)-thiazole-2,4-diamine]",–
2700,–,"COc1cc(Nc2nc(N)c(C3=N[C@H](C)[C@H](c4ccccc4)O3)s2)cc(OC)c1OC [I(18), 5-(4(R)-Methyl-5(S)-phenyl-4,5-dihydro-oxazol-2-yl)-N^2-(3,4,5-trimethoxy-phenyl)-thiazole-2,4-diamine]",–

Compound,Ki ([1]; Table 2) [nM],Ki ([1]; Table 1) [nM],further results
"COc1cc(Nc2nc(N)c(-c3nc(-c4cccc(NC(=O)Oc5cccc6ccccc56)c4)cs3)s2)cc(OC)c1OC [D(22), {3-[4′-Amino-2′-(3,4,5-trimethoxy-phenylamino)-[2,5′]bithiazolyl-4-yl]-phenyl}-carbamic acid naphthalen-1-yl ester]",–,89,–
